Data taken from publication PMC2923275 (Biochemical pharmacology, 2010).

What was measured:
[1] = system: uninfected human foreskin fibroblasts; test: Host toxicity, MTT assay on uninfected host cells; details: infection: None
[2] = system: wild type (RH) strain of T. gondii; test: Anti-toxoplasmic activity in tissue culture; format: cell-based, Toxoplasma gondii; details: wild type (RH) in human fibroblasts
[3] = system: adenosine kinase deficient (TgAK^-3) strain of T. gondii; test: Anti-toxoplasmic activity in tissue culture; format: cell-based, Toxoplasma gondii; details: TgAK^-3 in human fibroblasts

SMILES: N#Cc1ccc(CSc2ncnc3c2ncn3C2CC(CO)C(O)C2O)cc1 (stereo not drawn) [Compound 13, Carbocyclic 6-(p-cyanobenzylthio)inosine]
- host-toxicity (survival of uninfected host cells) ([1]; 5 μM compound): 100%
- host-toxicity (survival of uninfected host cells) ([1]; 10 μM compound): 100%
- host-toxicity (survival of uninfected host cells) ([1]; 25 μM compound): 100%
- host-toxicity (survival of uninfected host cells) ([1]; 50 μM compound): 100%
- percent survival of parasite ([2]; 5 μM compound): 100%
- percent survival of parasite ([2]; 10 μM compound): 100%
- percent survival of parasite ([2]; 25 μM compound): 48.8%
- percent survival of parasite ([2]; 50 μM compound): 17.8%
- percent survival of parasite ([3]; 5 μM compound): 100%
- percent survival of parasite ([3]; 10 μM compound): 100%
- percent survival of parasite ([3]; 25 μM compound): 100%
- percent survival of parasite ([3]; 50 μM compound): 100%

SMILES: OCC1CC(n2cnc3c(SCc4ccccc4F)ncnc32)C(O)C1O (stereo not drawn) [Compound 2, Carbocyclic 6-(o-fluorobenzylthio)inosine]
- host-toxicity (survival of uninfected host cells) ([1]; 5 μM compound): 100%
- host-toxicity (survival of uninfected host cells) ([1]; 10 μM compound): 100%
- host-toxicity (survival of uninfected host cells) ([1]; 25 μM compound): 100%
- host-toxicity (survival of uninfected host cells) ([1]; 50 μM compound): 85.8%
- percent survival of parasite ([2]; 5 μM compound): 98.6%
- percent survival of parasite ([2]; 10 μM compound): 93.7%
- percent survival of parasite ([2]; 25 μM compound): 39.2%
- percent survival of parasite ([2]; 50 μM compound): 12.7%
- percent survival of parasite ([3]; 5 μM compound): 100%
- percent survival of parasite ([3]; 10 μM compound): 100%
- percent survival of parasite ([3]; 25 μM compound): 100%
- percent survival of parasite ([3]; 50 μM compound): 100%

SMILES: COC(=O)c1ccc(CSc2ncnc3c2ncn3C2CC(CO)C(O)C2O)cc1 (stereo not drawn) [Compound 14, Carbocyclic 6-(p-methoxycarbonylbenzylthio)inosine]
- host-toxicity (survival of uninfected host cells) ([1]; 5 μM compound): 100%
- host-toxicity (survival of uninfected host cells) ([1]; 10 μM compound): 99.4%
- host-toxicity (survival of uninfected host cells) ([1]; 25 μM compound): 88.7%
- host-toxicity (survival of uninfected host cells) ([1]; 50 μM compound): 87.1%
- percent survival of parasite ([2]; 5 μM compound): 53.9%
- percent survival of parasite ([2]; 10 μM compound): 6.3%
- percent survival of parasite ([2]; 25 μM compound): 1.5%
- percent survival of parasite ([2]; 50 μM compound): 0.0%
- percent survival of parasite ([3]; 5 μM compound): 100%
- percent survival of parasite ([3]; 10 μM compound): 100%
- percent survival of parasite ([3]; 25 μM compound): 100%
- percent survival of parasite ([3]; 50 μM compound): 100%

SMILES: OCC1CC(n2cnc3c(SCc4ccc(Cl)c(Cl)c4)ncnc32)C(O)C1O (stereo not drawn) [Compound 19, Carbocyclic 6-(m,p-dichlorobenzylthio)inosine]
- host-toxicity (survival of uninfected host cells) ([1]; 5 μM compound): 100%
- host-toxicity (survival of uninfected host cells) ([1]; 10 μM compound): 100%
- host-toxicity (survival of uninfected host cells) ([1]; 25 μM compound): 100%
- host-toxicity (survival of uninfected host cells) ([1]; 50 μM compound): 73.1%
- percent survival of parasite ([2]; 5 μM compound): 59.7%
- percent survival of parasite ([2]; 10 μM compound): 17.8%
- percent survival of parasite ([2]; 25 μM compound): 8.3%
- percent survival of parasite ([2]; 50 μM compound): 1.5%
- percent survival of parasite ([3]; 5 μM compound): 100%
- percent survival of parasite ([3]; 10 μM compound): 100%
- percent survival of parasite ([3]; 25 μM compound): 100%
- percent survival of parasite ([3]; 50 μM compound): 100%

SMILES: O=[N+]([O-])c1ccc(CSc2ncnc3c2ncn3C2CC(CO)C(O)C2O)cc1 (stereo not drawn) [Compound 12, Carbocyclic 6-(p-nitrobenzylthio)inosine]
- host-toxicity (survival of uninfected host cells) ([1]; 5 μM compound): 100%
- host-toxicity (survival of uninfected host cells) ([1]; 10 μM compound): 100%
- host-toxicity (survival of uninfected host cells) ([1]; 25 μM compound): 100%
- host-toxicity (survival of uninfected host cells) ([1]; 50 μM compound): 100%
- percent survival of parasite ([2]; 5 μM compound): 100%
- percent survival of parasite ([2]; 10 μM compound): 97.6%
- percent survival of parasite ([2]; 25 μM compound): 44.2%
- percent survival of parasite ([2]; 50 μM compound): 16.8%
- percent survival of parasite ([3]; 5 μM compound): 100%
- percent survival of parasite ([3]; 10 μM compound): 100%
- percent survival of parasite ([3]; 25 μM compound): 100%
- percent survival of parasite ([3]; 50 μM compound): 100%

SMILES: OCC1CC(n2cnc3c(SCc4ccc(Cl)cc4)ncnc32)C(O)C1O (stereo not drawn) [Compound 9, Carbocyclic 6-(p-chlorobenzylthio)inosine]
- host-toxicity (survival of uninfected host cells) ([1]; 5 μM compound): 100%
- host-toxicity (survival of uninfected host cells) ([1]; 10 μM compound): 100%
- host-toxicity (survival of uninfected host cells) ([1]; 25 μM compound): 100%
- host-toxicity (survival of uninfected host cells) ([1]; 50 μM compound): 100%
- percent survival of parasite ([2]; 5 μM compound): 72.9%
- percent survival of parasite ([2]; 10 μM compound): 11.9%
- percent survival of parasite ([2]; 25 μM compound): 0.0%
- percent survival of parasite ([2]; 50 μM compound): 0.0%
- percent survival of parasite ([3]; 5 μM compound): 100%
- percent survival of parasite ([3]; 10 μM compound): 100%
- percent survival of parasite ([3]; 25 μM compound): 100%
- percent survival of parasite ([3]; 50 μM compound): 100%

SMILES: CS(=O)(=O)c1ccc(CSc2ncnc3c2ncn3C2CC(CO)C(O)C2O)cc1 (stereo not drawn) [Compound 17, Carbocyclic 6-(p-methylsulfonylbenzylthio)inosine]
- host-toxicity (survival of uninfected host cells) ([1]; 5 μM compound): 100%
- host-toxicity (survival of uninfected host cells) ([1]; 10 μM compound): 100%
- host-toxicity (survival of uninfected host cells) ([1]; 25 μM compound): 100%
- host-toxicity (survival of uninfected host cells) ([1]; 50 μM compound): 100%
- percent survival of parasite ([2]; 5 μM compound): 66.8%
- percent survival of parasite ([2]; 10 μM compound): 21.2%
- percent survival of parasite ([2]; 25 μM compound): 0.0%
- percent survival of parasite ([2]; 50 μM compound): 0.0%
- percent survival of parasite ([3]; 5 μM compound): 100%
- percent survival of parasite ([3]; 10 μM compound): 100%
- percent survival of parasite ([3]; 25 μM compound): 100%
- percent survival of parasite ([3]; 50 μM compound): 100%
